Read-outs that look alike come from different tables or passages of the source.
Key:
HeLa cells (ATCC CCL-2) = test: Cellular growth inhibition assay, HeLa cells (Example 16); type: cell-based; settings: Homo sapiens, 72 hours, CellTiter-Glo 2.0
Method: (§1) Exemplary compounds were tested for ability to inhibit the proliferation of HEK293 cells (ATCC CRL-1573) and HeLa cells (ATCC CCL-2).
(§2) HEK293 and HeLa cells were cultured in DMEM (Gibco 11995), supplemented with 10% Heat-inactivated FBS (Gibco A38400-01) and 1% Penicillin/Streptomycin (Gibco 15140-122) at 37° C. with 5% CO2 in a humidified tissue culture incubator. Cells were seeded at 500 cells/well in 384-well, Poly-D-lysine-treated blackplates (Perkin Elmer 6007710) in 25 μL media lacking selection for 18-24 hours. Plates were spun at 300 g for 30 seconds and stored in the incubator overnight. After 24 hours, a 25 μL aliquot of compound-containing medium was added in each well, at a final top concentration of 10 μM test compound, with 3-fold dilutions, using DMSO alone as a negative control. Plates were then spun at 300×g for 3 minutes again and cultured at 37° C. with 5% CO2. After 72 hours, cell viability was quantified with CellTiter-Glo 2.0 (Promega). After equilibrating cell plates at room temperature for 30 minutes, 25 μL CellTiter-Glo 2.0 reagent was dispensed into each well. Plates were mixed on a shaker for 2 minutes at 500 rpm, followed by a 10-minute incubation at room temperature. Luminescence readings were measured with an EnVision Plate Reader (Perkin Elmer). Data was normalized to DMSO treated cell wells. A four-parameter non-linear regression curve fit was applied to dose-response data in Prism to determine the half maximal growth inhibitory concentration (GI50) of each compound.

GSPT1 [1] = test: Payload release assay (DC50 readout), GSPT1 degradation in the presence of recombinant target protein; type: cell-based; settings: I-series compounds (GSPT1 readout inferred)
Method: Exemplary compounds were tested for ability to cause degradation of CCNK or GSPT1 in the presence of recombinant target protein.
HEK293 LgBiT/GSPT1 HiBiT CRISPR Knock-in cells (Promega) were cultured in DMEM (Gibco 11995), supplemented with 10% Heat-inactivated FBS (Gibco A38400-01) and 1% Penicillin/Streptomycin (Gibco 15140-122) and 200 Vg/ml Hygromycin B (Gibco 10-687-010) at 37° C. with 5% CO2 in a humidified tissue culture incubator. HEK293 LgBiT/CCNK HiBiT cells (in-house, described above) were cultured in DMEM (Gibco 11995), supplemented with 10% Heat-inactivated FBS (Gibco A38400-01) and 1% Penicillin/Streptomycin (Gibco 15140-122) 200 Vg/ml Hygromycin B (Gibco 10-687-010), and 1 Vg/ml Puromycin Dihydrochloride (Thermo A1113803) at 37° C. with 5% CO2 in a humidified tissue culture incubator. Cells were seeded (1000 cells/well for HEK293 LgBiT/GSPT1 HiBiT cells or 3000 cells/well for HEK293 LgBiT/CCNK HiBiT cells) 384-well, tissue culture-treated white plates (Perkin Elmer 6007680) in 10 μL media lacking selection for 18-24 hours. Plates were spun at 300 g for 30 seconds and stored in the incubator overnight. After 24 hours, a 5 μL aliquot of recombinant target protein (final concentration of either 5 μM KRAS amino acids 1-169, C51S, C80L, C118S, G12C or 3 μM EGFR amino acids 696-1022 or 3 μM EGFR amino acids 696-1022, T790M, L858R) was added to wells, followed immediately by a 5 μL aliquot of 4× compound-containing medium supplemented with Endurazine Substrate (Promega N2570) was added in each well, at a final top concentration of 10 μM test compound and 0.5× Endurazine, with 4-fold dilutions, using DMSO alone as a negative control. Plates were then spun at 300×g for 3 minutes again and cultured at 37° C. with 5% CO2. After 6 hours the plate was read on Envision MultiMode Plate Reader 2105 (Perkin Elmer) to measure luminescence signal. Data was normalized to DMSO treated cell wells. A four-parameter non-linear regression curve fit was applied to dose-response data in Prism to determine the half maximal growth inhibitory concentration (GI50) of each compound.

[2] = test system: HEK293 cells (ATCC CRL-1573); test: Cellular growth inhibition assay, HEK293 cells (Example 16); type: cell-based; settings: Homo sapiens, 72 hours, CellTiter-Glo 2.0
Method: as §1, §2

KRAS G12C = KRAS G12C (Homo sapiens, UniProt P01116, G12C); test: KRAS G12C nucleotide exchange assay (SOS1-mediated, HTRF); type: biochemical; set-up: GST-tagged KRAS G12C (amino acids 2-169); settings: 1 hr pre-incubation
Method: KRAS target engagement (IC50 determination) was performed using a KRAS G12C nucleotide exchange assay. Specifically, compounds were tested against KRAS G12C in 10-point concentration IC50 mode with 3-fold serial dilution at a starting concentration of 10 μM. ARS1620 was used as a control.
Briefly, GST-tagged KRAS G12C (amino acids 2-169) was mixed with anti-GST Tb antibody (1.5× solution) and 10 μL was delivered to reaction wells. Compounds were delivered using an acoustic dispenser (Echo, Labcyte) and pre-incubated with protein for 1 hr at RT. KRAS/anti-GST Tb Ab/compound mixture was incubated for 1 hour at room temperature. A 3× solution of SOS1 (amino acids 564-1049) and GTP-DY-647P1 (GTP*) was prepared in reaction buffer. A 5 μL aliquot of SOS1/GTP* solution was added to reaction wells to initiate the exchange reaction. No-SOS1 reaction or max compound concentration was used as blank. The final concentrations of KRAS G12C, SOS1, and GTP* were 30 nM, 20 nM, and 0.15 μM, respectively. SOS1 mediated exchange of GDP to GTP-DY-647P was measured using HTRF (Ex/Em=(320-75/665-7.5; 615-8.5)) using an Envision Plate Reader (Perkin Elmer). IC50 determination was performed using a Sigmoidal dose response (variable slope) equation.

GSPT1 [3] = molecular target: T1, GSPT1 (Homo sapiens, UniProt P15170+Q96SW2); test: GSPT1 HiBiT degradation assay; type: cell-based; settings: HEK293 LgBiT GSPT1 HiBiT cells, 6 hours
T1 construct: host or cells: HEK293 LgBiT / GSPT1 HiBiT CRISPR knock-in
From the text: Promega developed a HEK293 cell line that constitutively expresses LgBiT protein and GSPT1_HiBiT fusion protein. When both proteins are present, the HiBiT portion of the fusion protein combines with LgBiT protein to form a functional luciferase enzyme. Endurazine, a cell permeable small molecule, is converted by cellular esterases into furimazine, which the luciferase enzyme uses as a substrate to generate luminescence. When GSPT1 is degraded, the HiBit is also degraded. This prevents formation of fully functional luciferase, leading to a loss in luminescence. GSPT1 degradation therefore correlates with a decrease in luminescence and can be measured continuously over time. The concentration of compound at which 50% GSPT1 degradation occurs (DC50) may be calculated using this system.
HEK293 LgBiTGSPT1 HiBiT CRISPR Knock-in cells were cultured in DMEM Media supplemented with 10% Heat-inactivated FBS, 1% Penicillin/Streptomycin, 200 μg/mL hygromycin and stored in a humidified incubator set at 37° C. and 5% CO2. 18-24 hours prior to compound treatment, cells were seeded at 1000 cells/well in a 384-well tissue culture-treated white plates in 25 μL media lacking selection for 18-24 hours. The plates were spun at 300 g for 30 seconds and stored in the incubator overnight. After 24 hours, compounds are titrated in DMSO and added to media supplemented with endurazine substrate. A 25 μL aliquot of 2× compound/endurazine in media is then added to the 384-well microplate with seeded cells. (Endurazine is used at a final concentration of 0.5×). The plate was spun at 300 g for 30 seconds and stored in the incubator. After 6 hours, the plate was read on a Perkin Elmer MultiMode Plate Reader Envision 2105 to measure luminescence signal. Data were plotted in Prism (Graphpad) and the concentration of compound at which 50% GSPT1 degradation occurs (DC50) was calculated.

BTK = molecular target: T2, BTK (Homo sapiens, UniProt Q06187); test: Release of effector protein ligand from heterobifunctional compounds, BTK; type: biochemical
T2 construct: BTK (amino acids 387-659)
Method: Exemplary heterobifunctional compounds were evaluated for the ability to release an effector protein ligand in the presence of KRAS G12C, BTK, or EGFR T790M L858R target proteins.
Samples for mass spectrometry for KRAS G12C, BTK, and EGFR T790M L858R were prepared as described above for the intact mass spectrometry target engagement experiment, respectively, except rather than flash-freezing, 20 μL of sample was quenched with 50 μL of 100% acetonitrile. As well, a buffer-only control was used to detect latent release of effector protein ligand analyte. Internal standard (IS) solution consisted of 200 ng/mL propranolol and 50 ng/mL diclofenac in methanol:water 1:1 (v/v). A 4-point calibration curve (calibration standard (CS)) consisting of each analyte was made at final concentrations of 3 nM, 30 nM, 300 nM, and 3000 nM. Unknown samples were diluted such that the unknown analyte concentration was in the linear range of the calibration curve.
Samples for all proteins were prepared and analyzed from the following:
Samples were further analyzed with AB Sciex Triple Quad 5500 system coupled with Shimadzu Prominence HPLC.

[4] = 0 μM recombinant KRAS G12C, read-out: DC50 at 0 μM KRAS G12C
[5] = 5 μM recombinant KRAS G12C, read-out: DC50 at 5 μM KRAS G12C

T2 sequence (Q06187 387-659): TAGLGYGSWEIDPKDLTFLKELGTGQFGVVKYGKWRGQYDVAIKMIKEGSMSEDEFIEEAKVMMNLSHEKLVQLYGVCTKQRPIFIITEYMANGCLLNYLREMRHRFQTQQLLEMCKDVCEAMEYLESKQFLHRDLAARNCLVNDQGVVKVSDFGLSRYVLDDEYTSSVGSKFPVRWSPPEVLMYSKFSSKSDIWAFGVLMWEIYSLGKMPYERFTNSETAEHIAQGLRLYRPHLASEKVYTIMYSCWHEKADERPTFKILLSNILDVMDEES
Chain of KRAS G12C (P01116 2-169 isoform P01116-2 G12C): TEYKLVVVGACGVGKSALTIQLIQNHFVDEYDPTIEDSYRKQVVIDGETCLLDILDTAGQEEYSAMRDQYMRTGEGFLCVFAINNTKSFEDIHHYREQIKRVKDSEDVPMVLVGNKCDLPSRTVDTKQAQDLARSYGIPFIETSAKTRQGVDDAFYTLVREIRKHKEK
T1 sequence (P15170 whole entry): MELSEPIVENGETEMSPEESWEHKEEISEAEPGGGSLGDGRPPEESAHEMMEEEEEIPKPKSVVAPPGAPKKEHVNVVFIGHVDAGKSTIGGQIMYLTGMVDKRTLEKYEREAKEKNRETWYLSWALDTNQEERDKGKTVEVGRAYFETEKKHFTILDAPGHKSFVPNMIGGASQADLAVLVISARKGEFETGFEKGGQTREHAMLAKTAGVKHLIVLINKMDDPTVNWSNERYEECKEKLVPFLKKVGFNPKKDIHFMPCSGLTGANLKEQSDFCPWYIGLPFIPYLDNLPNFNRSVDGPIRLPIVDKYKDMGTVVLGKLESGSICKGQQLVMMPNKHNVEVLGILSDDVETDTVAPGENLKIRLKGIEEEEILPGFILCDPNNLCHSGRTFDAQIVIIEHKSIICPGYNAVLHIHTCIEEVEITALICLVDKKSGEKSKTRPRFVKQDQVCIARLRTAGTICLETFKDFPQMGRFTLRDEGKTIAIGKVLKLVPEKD
T1 sequence (Q96SW2 whole entry): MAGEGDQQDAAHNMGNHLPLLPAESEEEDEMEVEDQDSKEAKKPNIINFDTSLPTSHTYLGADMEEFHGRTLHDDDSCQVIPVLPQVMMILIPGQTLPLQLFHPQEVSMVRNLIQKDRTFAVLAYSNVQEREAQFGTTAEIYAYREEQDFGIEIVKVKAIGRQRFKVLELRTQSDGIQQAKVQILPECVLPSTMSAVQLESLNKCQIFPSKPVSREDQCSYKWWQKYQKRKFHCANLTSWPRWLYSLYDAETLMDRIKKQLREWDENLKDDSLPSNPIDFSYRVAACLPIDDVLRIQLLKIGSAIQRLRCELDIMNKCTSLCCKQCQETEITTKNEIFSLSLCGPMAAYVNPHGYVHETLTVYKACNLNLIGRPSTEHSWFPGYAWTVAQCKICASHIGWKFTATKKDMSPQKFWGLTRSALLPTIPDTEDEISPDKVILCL
T1 sequence (Q16531 whole entry partner): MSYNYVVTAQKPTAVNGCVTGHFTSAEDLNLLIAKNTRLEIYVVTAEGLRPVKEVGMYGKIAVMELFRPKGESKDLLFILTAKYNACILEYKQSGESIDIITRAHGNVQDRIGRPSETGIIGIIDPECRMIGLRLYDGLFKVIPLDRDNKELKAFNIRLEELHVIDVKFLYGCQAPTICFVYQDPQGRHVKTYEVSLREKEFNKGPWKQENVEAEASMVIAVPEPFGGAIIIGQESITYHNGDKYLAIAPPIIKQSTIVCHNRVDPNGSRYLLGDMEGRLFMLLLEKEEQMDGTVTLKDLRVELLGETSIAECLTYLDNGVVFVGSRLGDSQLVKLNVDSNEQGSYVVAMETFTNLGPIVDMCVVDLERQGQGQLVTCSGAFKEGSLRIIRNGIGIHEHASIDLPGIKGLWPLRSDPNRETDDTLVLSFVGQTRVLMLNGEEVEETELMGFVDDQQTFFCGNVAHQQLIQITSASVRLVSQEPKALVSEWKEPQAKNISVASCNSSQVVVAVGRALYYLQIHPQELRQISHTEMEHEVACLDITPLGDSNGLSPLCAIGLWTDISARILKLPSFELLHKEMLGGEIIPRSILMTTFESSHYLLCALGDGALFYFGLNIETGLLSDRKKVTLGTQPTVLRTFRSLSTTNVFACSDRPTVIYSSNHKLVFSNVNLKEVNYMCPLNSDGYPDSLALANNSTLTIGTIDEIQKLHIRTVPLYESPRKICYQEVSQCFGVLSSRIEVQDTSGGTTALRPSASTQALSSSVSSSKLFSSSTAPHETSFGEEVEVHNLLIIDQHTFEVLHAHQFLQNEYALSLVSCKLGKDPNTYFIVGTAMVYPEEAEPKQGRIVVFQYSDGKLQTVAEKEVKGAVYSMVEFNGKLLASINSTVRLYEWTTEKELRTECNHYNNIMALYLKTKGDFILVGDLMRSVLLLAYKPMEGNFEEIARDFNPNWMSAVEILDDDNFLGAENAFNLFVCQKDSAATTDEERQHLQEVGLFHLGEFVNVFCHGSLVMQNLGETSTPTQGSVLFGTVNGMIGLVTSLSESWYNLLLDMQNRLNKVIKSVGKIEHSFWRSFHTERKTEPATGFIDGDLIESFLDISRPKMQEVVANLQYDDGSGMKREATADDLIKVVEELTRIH

## C=C(COc1cc(Cl)cc(NC(=O)NCc2ccc3c(c2)CN(C2CCC(=O)NC2=O)C3=O)c1)C(=O)N1CC(n2c(=O)c3cc(-c4cc(O)cc5ccccc45)ccc3n2C)C1 (centres unmarked) [Compound I-57]
HeLa cells (ATCC CCL-2)
  GI50: 1500 to 10000 nM
GSPT1 [1]; [4]
  DC50: < 250 nM
GSPT1 [1]; [5]
  DC50: < 250 nM
[2]
  GI50: < 500 nM
KRAS G12C
  IC50: > 10000 nM
GSPT1 [3]
  DC50: 50 to 500 nM

## C=C(COc1ccc2nc3c(c(CC)c2c1)Cn1c-3cc2c(c1=O)COC(=O)[C@]2(O)CC)C(=O)N1CCC[C@@H](n2nc(-c3ccc(Oc4ccccc4)cc3)c3c(N)ncnc32)C1 [Compound A1-6]
BTK; Matrix Buffer + Protein (BTK), Time 0 h, detected A1-7
  Concentration of Effector Protein Ligand: 790 nM
BTK; Matrix Buffer + Protein (BTK), Time 1 h, detected A1-7
  Concentration of Effector Protein Ligand: 797 nM
BTK; Matrix Buffer + Protein (BTK), Time 4 h, detected A1-7
  Concentration of Effector Protein Ligand: 641 nM
BTK; Matrix Buffer + Protein (BTK), Time 22 h, detected A1-7
  Concentration of Effector Protein Ligand: 770 nM
BTK; Matrix Buffer, Time 0 h, detected A1-7
  Concentration of Effector Protein Ligand: 104 nM
BTK; Matrix Buffer, Time 1 h, detected A1-7
  Concentration of Effector Protein Ligand: 92.6 nM
BTK; Matrix Buffer, Time 4 h, detected A1-7
  Concentration of Effector Protein Ligand: 66.4 nM
BTK; Matrix Buffer, Time 22 h, detected A1-7
  Concentration of Effector Protein Ligand: 86.4 nM

## C=C(COc1cc(C(F)(F)C(=O)NCc2ccc3c(c2)CN(C2CCC(=O)NC2=O)C3=O)ccc1Cl)C(=O)N1CCN(c2nc(OC[C@@H]3CCCN3C)nc3c2CCN(c2cccc4cccc(Cl)c24)C3)C[C@@H]1CC#N (some centres unmarked) [Compound I-81]
GSPT1 [1]; [4]
  DC50: 250 to 5000 nM
GSPT1 [1]; [5]
  DC50: > 10000 nM
[2]
  GI50: 1500 to 10000 nM
KRAS G12C
  IC50: < 100 nM
GSPT1 [3]
  DC50: 50 to 500 nM

## C=C(COc1cc([N+](=O)[O-])c(Cl)cc1NC(=O)NCc1ccc2c(c1)CN(C1CCC(=O)NC1=O)C2=O)C(=O)N1CCN(c2nc(OC[C@@H]3CCCN3C)nc3c2CCN(c2cccc4cccc(Cl)c24)C3)C[C@@H]1CC#N (some centres unmarked) [Compound I-82]
GSPT1 [1]; [4]
  DC50: > 10000 nM
GSPT1 [1]; [5]
  DC50: 5000 to 10000 nM
[2]
  GI50: > 10000 nM
KRAS G12C
  IC50: 100 to 5000 nM
GSPT1 [3]
  DC50: > 2500 nM

## C=C(Cn1cc(CNc2cc(N3CCCC[C@H]3CCO)nc3c(CC)cnn23)ccc1=O)C(=O)N(C)CCOc1c(N)ncnc1-c1cc(F)cc(NC(=O)c2ccc(C3CC3)cc2F)c1C [Compound A1-5]
BTK; Matrix Buffer + Protein (BTK), Time 0 h, detected A1-3
  Concentration of Effector Protein Ligand: 51.8 nM
BTK; Matrix Buffer + Protein (BTK), Time 1 h, detected A1-3
  Concentration of Effector Protein Ligand: 72.3 nM
BTK; Matrix Buffer + Protein (BTK), Time 4 h, detected A1-3
  Concentration of Effector Protein Ligand: 118 nM
BTK; Matrix Buffer + Protein (BTK), Time 22 h, detected A1-3
  Concentration of Effector Protein Ligand: 164 nM
BTK; Matrix Buffer, Time 0 h, detected A1-3
  Concentration of Effector Protein Ligand: 44.9 nM
BTK; Matrix Buffer, Time 1 h, detected A1-3
  Concentration of Effector Protein Ligand: 49 nM
BTK; Matrix Buffer, Time 4 h, detected A1-3
  Concentration of Effector Protein Ligand: 52.4 nM
BTK; Matrix Buffer, Time 22 h, detected A1-3
  Concentration of Effector Protein Ligand: 80.5 nM

## C=C(COc1cc(Cl)cc(NC(=O)NCc2ccc3c(c2)CN(C2CCC(=O)NC2=O)C3=O)c1)C(=O)N1CCN(c2ncnc3c(F)c(-c4c(O)cccc4F)c(Cl)cc23)CC1 (centres unmarked) [Compound I-43]
HeLa cells (ATCC CCL-2)
  GI50: 500 to 1500 nM
[2]
  GI50: < 500 nM
KRAS G12C
  IC50: > 10000 nM
GSPT1 [3]
  DC50: 50 to 500 nM

## C=C(CN1C(=O)CCC(N2Cc3cc(CNC(=O)Nc4cccc(Cl)c4O)ccc3C2=O)C1=O)C(=O)N1CCN(c2nc(OC[C@@H]3CCCN3C)nc3c2CCN(c2cccc4cccc(Cl)c24)C3)C[C@@H]1CC#N (some centres unmarked) [Compound I-83]
GSPT1 [1]; [4]
  DC50: 250 to 5000 nM
GSPT1 [1]; [5]
  DC50: > 10000 nM
[2]
  GI50: 1500 to 10000 nM
KRAS G12C
  IC50: 100 to 5000 nM
GSPT1 [3]
  DC50: 500 to 2500 nM
